Active and inactive are the calls of the source. The calls are words filed in the database; no cut-off is given here. Positions of bridges follow the written chain, without caps; N, C: chain ends. Residues, ends and D or L forms follow the SMILES beside them.
Key:
[1] = Inhibition of biotinylated Eu-W1024 streptavidin-labeled MAGEA4 (unknown origin) expressed in Escherichia coli BL21-(DE3)/GST-tagged RAD18 (unknown origin) (267 to 402 residues) interaction using Ulight-anti-GST antibody incubated for 30 to 60 mins by LANCE TR-FRET assay; design: species or system Homo sapiens
[2] = target: T1, Melanoma-associated antigen 4 (Homo sapiens, UniProt P43358); assay: Binding affinity to recombinant N-terminal His-tagged MAGEA4-MH domain (unknown origin) expressed in Escherichia coli BL21-(DE3) by isothermal titration calorimetry
T1 sequence (P43358 whole entry): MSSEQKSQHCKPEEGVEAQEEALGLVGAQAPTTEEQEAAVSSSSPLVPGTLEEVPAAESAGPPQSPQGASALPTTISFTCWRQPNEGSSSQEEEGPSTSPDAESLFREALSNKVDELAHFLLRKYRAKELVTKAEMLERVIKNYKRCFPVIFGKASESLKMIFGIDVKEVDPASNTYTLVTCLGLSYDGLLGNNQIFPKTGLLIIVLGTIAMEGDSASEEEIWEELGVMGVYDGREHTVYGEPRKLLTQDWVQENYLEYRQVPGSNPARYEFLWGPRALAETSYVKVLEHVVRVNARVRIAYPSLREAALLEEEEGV

[3] = target: T1, Melanoma-associated antigen 4; assay: Binding affinity to MAGEA4 (unknown origin) expressed in Escherichia coli BL21-(DE3) by isothermal titration calorimetry
[4] = target: T1, Melanoma-associated antigen 4; assay: Inhibition of Eu-W1024 streptavidin-labeled MAGEA4 (unknown origin) expressed in Escherichia coli BL21-(DE3) incubated for 30 to 60 mins by LANCE TR-FRET assay
Homo sapiens = species: Homo sapiens; assay: Binding affinity to recombinant N-terminal His-tagged MAGEA4-MH domain Y5A mutant (unknown origin) expressed in Escherichia coli BL21-(DE3) assessed as inhibition of protein stabilization at 10 uM by TR-FRET assay
[5] = target: T2, Melanoma-associated antigen 4 (Homo sapiens) (UniProt P43358); assay: Binding affinity to recombinant N-terminal His-tagged MAGEA4-MH domain (unknown origin) expressed in Escherichia coli BL21-(DE3) assessed as protection in trypsin-induced MAGEA4 protein degradation incubated for 1 hr by proteolysis based SDS-PAGE analysis
T2 sequence (whole entry): T1 sequence (P43358 whole entry)

CC(C)C[C@@H]1NC(=O)[C@H](CCCNC(=N)N)NC(=O)[C@H](CS)NC(=O)[C@H](Cc2ccc(O)cc2)NC(=O)CSC[C@@H](C(N)=O)NC(=O)[C@H](Cc2ccc(O)cc2)NC(=O)[C@H]([C@@H](C)O)NC(=O)[C@H](CCCNC(=N)N)NC(=O)[C@H]2CCCN2C(=O)[C@H](CC(C)C)NC(=O)[C@H](Cc2cnc[nH]2)NC(=O)[C@H](Cc2ccc(O)cc2)NC(=O)[C@H](CC(=O)O)NC(=O)[C@H](Cc2ccc(O)cc2)NC1=O
IC50 [1]: < 10 nM | Kd [2]: 6.5 nM | Kd [3]: 11.8 nM | IC50 [4]: < 1 nM

CC(C)C[C@@H]1NC(=O)[C@H]([C@H](C)O)NC(=O)[C@H](C(C)C)NC(=O)[C@H](Cc2ccc(O)cc2)NC(=O)CSC[C@@H](C(N)=O)NC(=O)[C@H]([C@@H](C)O)NC(=O)[C@H]2CCCN2C(=O)[C@H](Cc2ccccc2)NC(=O)[C@H](CCCNC(=N)N)NC(=O)[C@H](CC(N)=O)NC(=O)[C@H](Cc2ccccc2)NC(=O)[C@H]([C@@H](C)O)NC(=O)[C@H](CCCNC(=N)N)NC1=O
IC50 [1]: 13.5 nM | Kd [2]: 47.4 nM | Kd [3]: 55.5 nM | IC50 [4]: 1.26 nM

CC[C@H](C)[C@@H]1NC(=O)[C@H](Cc2ccc(O)cc2)NC(=O)CSC[C@@H](C(N)=O)NC(=O)[C@H](CC(N)=O)NC(=O)[C@H](Cc2cnc[nH]2)NC(=O)[C@H](Cc2ccc(O)cc2)NC(=O)[C@H](CC(=O)O)NC(=O)[C@H](C)NC(=O)[C@H](CC(C)C)NC(=O)[C@H](CCCNC(=N)N)NC1=O ({CH2CO}-YIRLADYHNC-NH2; thioether N-10)
Activity (Homo sapiens): Active

Ac-YIRLYDYHNC-NH2
Activity [5]: Active | IC50 [4]: < 10000 nM

From ChEMBL document CHEMBL5154904, “Discovery and Structural Basis of the Selectivity of Potent Cyclic Peptide Inhibitors of MAGE-A4” (J Med Chem, 2022)
